Assay results taken from publication doi:10.1101/2023.03.24.534094v2 (biorxiv, 2023).
Read-outs that look alike come from different tables or passages of the source.

Key:
MST1 = molecular target: T1, MST1 (Homo sapiens, UniProt Q13043); assay: biochemical
T1 sequence (Q13043 1-487): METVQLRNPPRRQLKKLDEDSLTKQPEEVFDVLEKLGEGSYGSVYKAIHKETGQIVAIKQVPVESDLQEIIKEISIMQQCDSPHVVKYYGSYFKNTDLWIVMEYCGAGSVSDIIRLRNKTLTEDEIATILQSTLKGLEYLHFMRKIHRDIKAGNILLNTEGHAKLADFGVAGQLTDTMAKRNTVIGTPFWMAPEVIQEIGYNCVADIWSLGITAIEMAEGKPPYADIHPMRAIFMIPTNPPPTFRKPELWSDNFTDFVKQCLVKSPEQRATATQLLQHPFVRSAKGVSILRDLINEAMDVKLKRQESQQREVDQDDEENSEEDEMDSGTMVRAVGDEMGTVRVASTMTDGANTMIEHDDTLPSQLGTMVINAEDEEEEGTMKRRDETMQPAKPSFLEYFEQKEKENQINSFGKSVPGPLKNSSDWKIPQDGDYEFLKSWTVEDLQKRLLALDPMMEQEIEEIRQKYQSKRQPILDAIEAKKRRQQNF

PAK1 = PAK1 (Homo sapiens, UniProt Q13153); assay: biochemical
EpHB4 = molecular target: T2, EpHB4 (Homo sapiens, UniProt P54760); assay: NanoBRET target engagement; format: cell-based
T2 sequence (P54760 16-987): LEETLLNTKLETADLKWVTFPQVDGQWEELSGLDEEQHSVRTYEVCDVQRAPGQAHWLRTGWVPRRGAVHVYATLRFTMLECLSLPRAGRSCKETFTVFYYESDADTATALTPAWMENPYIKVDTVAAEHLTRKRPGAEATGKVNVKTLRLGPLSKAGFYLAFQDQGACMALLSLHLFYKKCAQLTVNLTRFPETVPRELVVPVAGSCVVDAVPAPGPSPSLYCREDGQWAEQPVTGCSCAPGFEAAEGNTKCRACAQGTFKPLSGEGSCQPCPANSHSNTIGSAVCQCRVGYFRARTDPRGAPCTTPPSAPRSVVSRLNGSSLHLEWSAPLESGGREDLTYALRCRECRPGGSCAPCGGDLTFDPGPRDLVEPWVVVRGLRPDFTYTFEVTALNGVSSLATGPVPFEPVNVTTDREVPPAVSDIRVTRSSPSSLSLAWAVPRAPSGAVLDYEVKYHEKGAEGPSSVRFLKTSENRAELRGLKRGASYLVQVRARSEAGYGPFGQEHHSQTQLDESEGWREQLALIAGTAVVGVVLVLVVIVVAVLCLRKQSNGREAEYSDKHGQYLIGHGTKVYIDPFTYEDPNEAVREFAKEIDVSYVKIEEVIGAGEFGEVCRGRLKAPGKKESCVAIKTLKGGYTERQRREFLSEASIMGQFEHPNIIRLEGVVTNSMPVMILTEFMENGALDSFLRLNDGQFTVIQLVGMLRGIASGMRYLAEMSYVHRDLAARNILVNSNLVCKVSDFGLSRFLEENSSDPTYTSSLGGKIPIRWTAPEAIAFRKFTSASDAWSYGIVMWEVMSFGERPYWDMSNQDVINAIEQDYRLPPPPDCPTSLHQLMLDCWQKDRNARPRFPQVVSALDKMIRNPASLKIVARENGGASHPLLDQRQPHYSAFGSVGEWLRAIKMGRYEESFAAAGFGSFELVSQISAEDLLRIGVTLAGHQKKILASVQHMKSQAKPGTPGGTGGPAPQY

EpHA1 = molecular target: T3, EpHA1 (Homo sapiens, UniProt P21709); assay: NanoBRET target engagement; format: cell-based
T3 sequence (P21709 26-976): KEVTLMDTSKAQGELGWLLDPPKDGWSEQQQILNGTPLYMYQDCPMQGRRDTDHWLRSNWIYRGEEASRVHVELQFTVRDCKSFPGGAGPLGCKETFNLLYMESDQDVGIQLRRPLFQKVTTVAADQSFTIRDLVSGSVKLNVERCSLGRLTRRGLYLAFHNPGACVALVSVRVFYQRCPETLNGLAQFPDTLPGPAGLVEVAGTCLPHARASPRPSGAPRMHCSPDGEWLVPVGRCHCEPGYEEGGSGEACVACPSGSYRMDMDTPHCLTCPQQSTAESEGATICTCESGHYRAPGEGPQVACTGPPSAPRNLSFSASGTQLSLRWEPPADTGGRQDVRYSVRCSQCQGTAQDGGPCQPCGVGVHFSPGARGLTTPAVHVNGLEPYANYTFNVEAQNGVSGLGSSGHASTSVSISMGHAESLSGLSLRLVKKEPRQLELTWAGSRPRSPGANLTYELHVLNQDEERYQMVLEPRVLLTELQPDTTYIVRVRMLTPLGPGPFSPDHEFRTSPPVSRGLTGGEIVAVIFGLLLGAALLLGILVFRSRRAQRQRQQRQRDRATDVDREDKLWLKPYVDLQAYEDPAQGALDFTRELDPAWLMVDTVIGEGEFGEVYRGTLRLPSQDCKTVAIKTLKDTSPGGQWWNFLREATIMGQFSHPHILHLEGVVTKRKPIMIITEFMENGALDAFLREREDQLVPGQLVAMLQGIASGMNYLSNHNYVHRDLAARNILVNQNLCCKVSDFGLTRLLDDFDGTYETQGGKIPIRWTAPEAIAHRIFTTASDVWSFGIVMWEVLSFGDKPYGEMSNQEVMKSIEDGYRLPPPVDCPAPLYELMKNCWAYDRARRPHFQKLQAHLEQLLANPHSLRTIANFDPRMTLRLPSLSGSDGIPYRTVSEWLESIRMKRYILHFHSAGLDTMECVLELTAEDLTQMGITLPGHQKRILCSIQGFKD

CDKL1 = CDKL1 (Homo sapiens, UniProt Q00532); assay: biochemical
[1] = intact mode, HEK293T, 37 °C, 2 h, tracer displacement

Chain of PAK1 (Q13153 whole entry): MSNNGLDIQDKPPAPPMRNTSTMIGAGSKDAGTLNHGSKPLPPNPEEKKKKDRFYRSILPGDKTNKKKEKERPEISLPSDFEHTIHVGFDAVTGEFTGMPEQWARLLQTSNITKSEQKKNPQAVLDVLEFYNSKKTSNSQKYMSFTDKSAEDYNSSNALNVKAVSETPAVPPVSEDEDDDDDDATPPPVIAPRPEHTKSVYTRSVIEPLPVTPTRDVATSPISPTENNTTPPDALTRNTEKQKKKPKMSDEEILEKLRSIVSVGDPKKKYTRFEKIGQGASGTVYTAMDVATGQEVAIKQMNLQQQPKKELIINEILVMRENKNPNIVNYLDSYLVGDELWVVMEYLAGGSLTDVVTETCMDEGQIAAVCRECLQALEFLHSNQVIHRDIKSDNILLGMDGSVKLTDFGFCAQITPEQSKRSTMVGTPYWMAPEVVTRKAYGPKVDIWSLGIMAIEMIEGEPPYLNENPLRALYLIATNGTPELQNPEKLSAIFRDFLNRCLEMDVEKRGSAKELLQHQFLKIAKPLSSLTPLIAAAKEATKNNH
Chain of CDKL1 (Q00532 whole entry): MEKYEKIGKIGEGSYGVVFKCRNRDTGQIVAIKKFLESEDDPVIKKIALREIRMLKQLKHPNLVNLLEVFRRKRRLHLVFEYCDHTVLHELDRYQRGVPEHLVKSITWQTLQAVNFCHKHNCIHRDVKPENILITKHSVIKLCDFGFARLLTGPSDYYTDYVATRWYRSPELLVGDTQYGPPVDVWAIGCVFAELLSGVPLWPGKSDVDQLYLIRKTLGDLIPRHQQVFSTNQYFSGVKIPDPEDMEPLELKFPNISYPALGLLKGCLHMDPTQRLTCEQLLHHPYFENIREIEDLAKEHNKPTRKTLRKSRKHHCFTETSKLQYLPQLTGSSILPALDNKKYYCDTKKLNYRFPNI

CNc1ncc2cc(-c3ccc(-c4cccc(C)n4)cc3Cl)c(=O)n(CC3OCC(N)CO3)c2n1 (centres unmarked) [compound 2, G-5555]
∆Tm G-5555 (2) (MST1; 10 µM, binder): 4.5 degC | ∆Tm G-5555 (2) (PAK1; 10 µM, binder): 6.4 degC

CNc1ncc2cc(-c3ccccc3Cl)c(=O)n(CCCCN)c2n1 [compound 4, 8-(4-Aminobutyl)-6-(2-chlorophenyl)-2-(methylamino)pyrido[2,3-d]pyrimidin-7(8H)-one]
ΔTm at 10 µM (MST1; read-out: ∆Tm MR21 (4)): 1.5 °C | ΔTm at 10 µM (PAK1; read-out: ∆Tm MR21 (4)): 1.6 °C | IC50 (EpHB4): 50 ± 12 nM | IC50 (EpHA1): 12 ± 2 nM

CNc1ncc2cc(-c3cc(F)ccc3F)c(=O)n(CCCCN)c2n1 [compound 5, 8-(4-Aminobutyl)-6-(2,5-difluorophenyl)-2-(methylamino)pyrido[2,3-d]pyrimidin-7(8H)-one]
ΔTm at 10 µM (MST1; read-out: ∆Tm MR22 (5)): -0.3 °C | IC50 (EpHB4; [1]): 607 ± 37 nM | IC50 (EpHA1; [1]): 145 ± 17 nM

CNc1ncc2cc(-c3cc(Br)ccc3Cl)c(=O)n(C[C@H]3OC[C@H](N)CO3)c2n1 [compound 7, 8-(((2r,5r)-5-Amino-1,3-dioxan-2-yl)methyl)-6-(5-bromo-2-chlorophenyl)-2-(methylamino)pyrido[2,3-d]pyrimidin-7(8H)-one]
ΔTm at 10 µM (PAK1; read-out: ∆Tm 7): 0.6 °C

CNc1ncc2cc(-c3cc(Cl)ccc3Cl)c(=O)n(CCCCN)c2n1 [compound 8, 8-(4-Aminobutyl)-6-(2,5-dichlorophenyl)-2-(methylamino)pyrido[2,3-d]pyrimidin-7(8H)-one]
ΔTm at 10 µM (CDKL1; read-out: dTm 8): 0.2 °C | IC50 (EpHB4): 188 ± 17 nM | IC50 (EpHA1): 82 ± 3 nM

CNc1ncc2cc(-c3cc(C(F)(F)F)ccc3Cl)c(=O)n(CCCCN)c2n1 [compound 9, 8-(4-Aminobutyl)-6-(2-chloro-5-(trifluoromethyl)phenyl)-2-(methylamino)pyrido[2,3-d]pyrimidin-7(8H)-one]
ΔTm at 10 µM (CDKL1; read-out: dTm 9): 0 °C

CNc1ncc2cc(-c3cc(Cl)ccc3Br)c(=O)n(CCCCN)c2n1 [compound 10, 8-(4-Aminobutyl)-6-(2-bromo-5-chlorophenyl)-2-(methylamino)pyrido[2,3-d]pyrimidin-7(8H)-one]
ΔTm at 10 µM (CDKL1; read-out: dTm 10): 0.3 °C

CNc1ncc2cc(-c3cc(Br)ccc3Br)c(=O)n(CCCCN)c2n1 [compound 11, 8-(4-Aminobutyl)-6-(2,5-dibromophenyl)-2-(methylamino)pyrido[2,3-d]pyrimidin-7(8H)-one]
ΔTm at 10 µM (CDKL1; read-out: dTm 11): 0.4 °C

CNc1ncc2cc(-c3cc(F)c(-c4cccc(C)n4)cc3F)c(=O)n(CCCCN)c2n1 [compound 12, 8-(4-Aminobutyl)-6-(2,5-difluoro-4-(6-methylpyridin-2-yl)phenyl)-2-(methylamino)pyrido[2,3-d]pyrimidin-7(8H)-one]
ΔTm at 10 µM (CDKL1; read-out: dTm 12): 0.2 °C
